In ChEMBL document CHEMBL5113466, “Design, synthesis, and bioactivity evaluation of macrocyclic benzo[b]pyrido[4,3-e][1,4]oxazine derivatives as novel Pim-1 kinase inhibitors” (Bioorg Med Chem Lett, 2022) one finds IC50 data, which are given here for 9 compounds.

pIC50: −log10 of the molar value.

Assay [1] has as its target Serine/threonine-protein kinase pim-1 (Homo sapiens, UniProt P11309). The experiment in a line: Inhibition of Pim-1 (unknown origin) measured by ADP-Glo kinase assay.
Another assay has as its system MDA-MB-231. The experiment in a line: Antiproliferative activity against human […] cells measured by cell viability assay. The format is functional, cell-based.

Chain of Serine/threonine-protein kinase pim-1 (P11309 whole entry): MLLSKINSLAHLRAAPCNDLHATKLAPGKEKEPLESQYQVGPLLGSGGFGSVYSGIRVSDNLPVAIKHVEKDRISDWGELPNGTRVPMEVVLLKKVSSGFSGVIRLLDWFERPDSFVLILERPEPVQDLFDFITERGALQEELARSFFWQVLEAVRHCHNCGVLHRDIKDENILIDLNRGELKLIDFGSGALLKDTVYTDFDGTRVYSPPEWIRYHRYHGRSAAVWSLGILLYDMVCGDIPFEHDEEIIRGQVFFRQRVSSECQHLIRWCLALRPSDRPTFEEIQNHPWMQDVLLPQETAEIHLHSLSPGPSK

On to `c1cc2c(cn1)Oc1ccc3cc1N2CCCCCNCCOCCO3`, for which the negative-log IC50 (pIC50) (as a rule, −log10 of the IC50, conventionally taken in molar units) in assay [1] was 6.86; with MDA-MB-231, 4.59.
For the compound `c1cc2c(cn1)Oc1ccc3cc1N2CCOCCNCCCCO3`, the pIC50 in assay [1] is 6.33; in the assay on MDA-MB-231 it was 4.36.
For `c1cc2c(cn1)Oc1ccc3cc1N2CCOCCNCCCCCO3` the same measures were 5.66 and 4.45.
Taken in the same sequence, the figures for `c1cc2c(cn1)Oc1ccc3cc1N2CCCCNCCCCCO3` were 6.57 and 4.79.
Taken in the same sequence, the figures for `c1cc2c(cn1)Oc1ccc3cc1N2CCCCNCCCCO3` were 6.36 and 4.72.
As to `c1cc2c(cn1)Oc1ccc3cc1N2CCCCNCCOCCO3`, the results for the pIC50 (in assay [1]; with MDA-MB-231) were 6.75 and 4.91, respectively.
For `c1cc2c(cn1)Oc1ccc3cc1N2CCCCCNCCCCO3` the same measures were 7.45 and 5.09.
In the case of `c1cc2c(cn1)Oc1ccc3cc1N2CCOCCNCCCO3`, the negative-log IC50 (pIC50) was 6.06 in assay [1] and 4.52 in the assay on MDA-MB-231.
For `c1cc2c(cn1)Oc1ccc3cc1N2CCCNCCOCCO3` the same measures were 7.24 and 4.71.
